Values of other authors as cited in patent publication US6706892B1, “Pulmonary delivery for bioconjugation” (priority 1999, dated 2004).

Columns and labels:
[1] = in vivo
breast cancer = details: in vivo

Row | half-life [1] | Compound | cut in the risk of breast cancer (breast cancer)
1 | about 24 hours | CC1=NS(=O)(=O)c2cc(Cl)ccc2N1 [Diazoxide] | –
2 | – | O=C(c1ccc(OCCN2CCCCC2)cc1)c1c(-c2ccc(O)cc2)sc2cc(O)ccc12 [Raloxifene] | ≤ 60%
